Calls of active or inactive are those of the source. The rule behind the calls is not given here.

The subject of the data set is GENE-TOX genotoxicity assays, various organisms and cells. Briefly: GENE-TOX mutagenicity studies. The settings on record: for call: Assay Type: In vivo carcinogenicity studies.
Setting [1] is: Species/Cell Type: Salmonella typhimurium (one or more of the five standard strains: TA98, TA100, TA1535, TA1537, and TA1538), Assay Type: Histidine reverse gene mutation, Ames assay, Assay Code: SALT, Evaluation Type: Evaluation A (Pre-1980).
Setting [2] is: Species/Cell Type: Drosophila melanogaster, Assay Type: Sex-linked recessive lethal gene mutation, Assay Code: SRLT, Evaluation Type: Evaluation A (Pre-1980).
[3] abbreviates: Species/Cell Type: Mouse, Sex: Male, Assay Type: Sperm morphology, Assay Code: SPI-, Evaluation Type: Evaluation A (Pre-1980).
Where [4] appears, read: Species/Cell Type: Nonhuman, Assay Type: Sister-chromatid exchange (SCE) in vitro, Assay Code: SC2+, Evaluation Type: Evaluation B (Post-1980).
Where [5] appears, read: Species/Cell Type: Escherichia coli polA (W3119 vs P3478), Assay Type: Rec-assay, DNA effects (bacterial DNA repair), Assay Code: RE1+, Evaluation Type: Evaluation A (Pre-1980).
The mark [6] stands for this setting: Species/Cell Type: Salmonella typhimurium (one or more of the five standard strains: TA98, TA100, TA1535, TA1537, and TA1538), Assay Type: Histidine reverse gene mutation, Ames assay, Assay Code: SAL+, Evaluation Type: Evaluation A (Pre-1980).
Setting [7] is: Species/Cell Type: Saccharomyces cerevisiae, Assay Type: Mitotic recombination or gene conversion, Assay Code: YEC-, Evaluation Type: Evaluation A (Pre-1980).
[8] abbreviates: Species/Cell Type: Salmonella typhimurium (one or more of the five standard strains: TA98, TA100, TA1535, TA1537, and TA1538), Assay Type: Histidine reverse gene mutation, Ames assay, Assay Code: SAL+*, Activation: With metabolic activation, Evaluation Type: Evaluation A (Pre-1980).

`OCCN(CCO)c1nc(-c2cccs2)nc2ccccc12`: the mutagenic call under setting [1] is reported as “no conclusion”.

Consider `C#CC(O)(c1ccccc1)c1ccccc1`, for which, under setting [1], the mutagenic call is reported as “no conclusion”.

As to `O=S(=O)(O)NC1CCCCC1`, the mutagenic call is “inactive; negative” (Species/Cell Type: Drosophila melanogaster, Assay Type: Aneuploidy, sex chromosome gain, chromosome aberrations, Assay Code: DAG-F, Evaluation Type: Evaluation A (Pre-1980)); “inactive; negative” (Species/Cell Type: Drosophila melanogaster, Assay Type: Aneuploidy, whole sex chromosome loss, chromosome aberrations, Assay Code: DAC-F, Evaluation Type: Evaluation A (Pre-1980)); “no conclusion” under setting [2]; “no conclusion” (Species/Cell Type: Mammalian germ cells, Sex: Male, Assay Type: Chromosome aberrations in vivo, Assay Code: CY9T, Evaluation Type: Evaluation A (Pre-1980)); “no conclusion” (Species/Cell Type: Mammalian polychromatic erythrocytes, Assay Type: Micronucleus test, chromosome aberrations, Assay Code: MNTT, Evaluation Type: Evaluation A (Pre-1980)); “inactive; negative” under setting [3]. For the same molecule, the mutagenic call (Species/Cell Type: Nonhuman bone marrow, Assay Type: Chromosome aberrations, in vivo, Assay Code: CY#T, Evaluation Type: Evaluation A (Pre-1980)) is “no conclusion”; the mutagenic call (Species/Cell Type: Rodents, Sex: Female, Assay Type: Dominant lethal test, Assay Code: DLTF-, Evaluation Type: Evaluation A (Pre-1980)) is “inactive; negative”; the mutagenic call (Species/Cell Type: Rodents, Sex: Male, Assay Type: Dominant lethal test, Assay Code: DLT-, Evaluation Type: Evaluation A (Pre-1980)) is “inactive; negative”; the mutagenic call (Species/Cell Type: Salmonella typhimurium, Serratia marcesens, Assay Type: Forward and reverse gene mutation, host-mediated assay, Assay Code: HM2-, Evaluation Type: Evaluation A (Pre-1980)) was “inactive; negative”.

For the molecule `O=C1c2cccc(O)c2C(=O)c2c(NCCNCCO)ccc(NCCNCCO)c21`, the mutagenic call under setting [4] was “active; positive”.

`Oc1ccc(Cl)cc1Cl`: under setting [1], the mutagenic call is listed as “no conclusion”.

For `Nc1ccc2cc3ccc(N)cc3nc2c1`, the mutagenic call was “no conclusion” (Species/Cell Type: Drosophila melanogaster, Assay Type: Aneuploidy, sex chromosome gain, chromosome aberrations, Assay Code: DAGT, Evaluation Type: Evaluation A (Pre-1980)); “active; positive” (Species/Cell Type: Drosophila melanogaster, Assay Type: Aneuploidy, whole sex chromosome loss, chromosome aberrations, Assay Code: DAC+F, Evaluation Type: Evaluation A (Pre-1980)); “active; positive” under setting [5]; “active; positive” (Species/Cell Type: Human lymphocytes, Assay Type: Sister-chromatid exchange (SCE) in vitro, Assay Code: SCL+, Evaluation Type: Evaluation B (Post-1980)); “active; positive” (Species/Cell Type: Human, Assay Type: Sister-chromatid exchange (SCE) in vitro, Assay Code: SC1+, Evaluation Type: Evaluation B (Post-1980)); “active; positive” (Species/Cell Type: Mouse lymphoma (L5178Y) cells, Assay Type: Forward gene mutation at the thymidine kinase (TK) locus, chromosome aberrations, Assay Code: L51+, Evaluation Type: Evaluation A (Pre-1980)). The mutagenic call is “active; positive” under setting [4]; “active; positive” (Species/Cell Type: Nonhuman, Assay Type: Sister-chromatid exchange (SCE) in vitro, Assay Code: SC2+D, Dose Response: With dose response, Evaluation Type: Evaluation A (Pre-1980)); “inactive; negative” (Species/Cell Type: Nonhuman, Assay Type: Sister-chromatid exchange (SCE) in vivo, Assay Code: SC3-, Evaluation Type: Evaluation A (Pre-1980)); “no conclusion” (Species/Cell Type: Nonhuman, Assay Type: Sister-chromatid exchange (SCE) in vivo, Assay Code: SC3T, Evaluation Type: Evaluation B (Post-1980)); “active; positive” (Species/Cell Type: Saccharomyces cerevisiae, Assay Type: Mitotic recombination or gene conversion, Assay Code: YEC+, Evaluation Type: Evaluation A (Pre-1980)); “no conclusion” (Species/Cell Type: Saccharomyces cerevisiae, Assay Type: Mitotic recombination or gene conversion, Assay Code: YECT, Evaluation Type: Evaluation A (Pre-1980)). Further, the mutagenic call under setting [6] is “active; positive”. Where the note is “Species/Cell Type: Nonhuman, Assay Code: CCGT, Evaluation Type: Evaluation A (Pre-1980)”, the call is “no conclusion”.

For the molecule `COc1cc(/C=C/C(=O)CC(=O)/C=C/c2ccc(O)c(OC)c2)ccc1O`, under setting [7], the mutagenic call is “inactive; negative”.

For `COc1ccc2c(ccc3c4c(ccc32)C(C)CC4)c1` (centres undefined), under setting [1], the mutagenic call is “no conclusion”.

On to `C/C=C/c1cn([C@H]2C[C@H](O)[C@@H](CO)O2)c(=O)[nH]c1=O`, for which the mutagenic call (Species/Cell Type: Human, Assay Type: Sister-chromatid exchange (SCE) in vitro, Assay Code: SC1+D, Dose Response: With dose response, Evaluation Type: Evaluation B (Post-1980)) was “active; positive”.

Regarding `O=[N+]([O-])c1ccc(/C=C/c2cnc(N(CO)CO)nn2)o1`, the call (Species/Cell Type: Nonhuman, Assay Code: CCG+, Evaluation Type: Evaluation A (Pre-1980)) was “active; positive”.

Regarding `CC1CCCCN1N=O` (centres undefined), the mutagenic call is “no conclusion” (Species/Cell Type: Drosophila melanogaster, Assay Type: Aneuploidy, partial sex chromosome loss, chromosome aberrations, Assay Code: DAPT, Evaluation Type: Evaluation A (Pre-1980)); “inactive; negative” (Species/Cell Type: Drosophila melanogaster, Assay Type: Aneuploidy, whole sex chromosome loss, chromosome aberrations, Assay Code: DAC-M, Evaluation Type: Evaluation A (Pre-1980)); “no conclusion” under setting [2]; “active; positive” (Species/Cell Type: Saccharomyces cerevisiae, Assay Type: Forward gene mutation, Assay Code: YEF+*, Activation: With metabolic activation, Evaluation Type: Evaluation A (Pre-1980)); “active; positive” (Species/Cell Type: Saccharomyces cerevisiae, Assay Type: Reverse gene mutation, Assay Code: YER+*, Activation: With metabolic activation, Evaluation Type: Evaluation A (Pre-1980)); “active; positive” under setting [8].

With `CC(Br)Br`, the mutagenic call under setting [2] was “no conclusion”; the mutagenic call under setting [5] was “active; positive”; the mutagenic call (Species/Cell Type: Tradescantia species, Assay Type: Gene mutation, Assay Code: TRM-, Evaluation Type: Evaluation A (Pre-1980)) is “inactive; negative”.

Regarding `COc1cc2c(c3oc(=O)c4c(c13)CCOC4=O)[C@@H]1C=CO[C@@H]1O2`, the mutagenic call was “active; positive” (Species/Cell Type: Bacillus subtilis (H17 vs M45), Assay Type: Rec-assay, spot test, DNA effects (bacterial DNA repair), Assay Code: REW+, Evaluation Type: Evaluation A (Pre-1980)); “active; positive” (Species/Cell Type: Human diploid fibroblasts, Assay Type: Unscheduled DNA synthesis (UDS) in vitro, DNA effects, Assay Code: UDH+, Evaluation Type: Evaluation A (Pre-1980)); “active; positive” (Species/Cell Type: Neurospora crassa, Assay Type: Forward gene mutation, Assay Code: NEF+, Evaluation Type: Evaluation A (Pre-1980)); “active; positive” (Species/Cell Type: Nonhuman, Assay Type: Sister-chromatid exchange (SCE) in vitro, Assay Code: SC2+D*, Activation: With metabolic activation, Dose Response: With dose response, Evaluation Type: Evaluation B (Post-1980)); “active; positive” (Species/Cell Type: Rat primary hepatocytes, Assay Type: Unscheduled DNA synthesis (UDS) in vitro, DNA effects, Assay Code: UDP+, Evaluation Type: Evaluation A (Pre-1980)); “inactive; negative” under setting [7]. For the same molecule, the mutagenic call under setting [8] is “active; positive”. Moreover, the call (Species/Cell Type: Nonhuman, Assay Code: CCG+L, Evaluation Type: Evaluation A (Pre-1980)) is “active; positive”.

Consider `CC(=O)c1ccc([N+](=O)[O-])o1`, for which the mutagenic call under setting [6] was “active; positive”.

Consider `O=C(CNC(=O)c1ccccc1)NO`, for which, under setting [6], the mutagenic call is “active; positive”.

Take `CC(C)NCC(O)c1ccc2ccccc2c1` (centres undefined): the mutagenic call (Species/Cell Type: Human diploid fibroblasts, Assay Type: Unscheduled DNA synthesis (UDS) in vitro, DNA effects, Assay Code: UDHT, Evaluation Type: Evaluation A (Pre-1980)) is listed as “no conclusion”; the mutagenic call (Species/Cell Type: Mammalian polychromatic erythrocytes, Assay Type: Micronucleus test, chromosome aberrations, Assay Code: MNTT, Evaluation Type: Evaluation B (Post-1980)) is reported as “no conclusion”; the mutagenic call under setting [3] was “inactive; negative”.

Take `CC(=O)c1ccccc1`: the mutagenic call is “inactive; negative” (Species/Cell Type: Escherichia coli polA (W3110 vs P3478), Assay Type: Rec-assay, DNA effects (bacterial DNA repair), Assay Code: RE2-, Evaluation Type: Evaluation A (Pre-1980)) and “inactive; negative” (Species/Cell Type: Escherichia coli polA (W3119 vs P3478), Assay Type: Rec-assay, DNA effects (bacterial DNA repair), Assay Code: RE1-, Evaluation Type: Evaluation A (Pre-1980)).

As for `ClCC1OC1CCl` (centres undefined), the mutagenic call (Species/Cell Type: Drosophila melanogaster, Assay Type: Sex-linked recessive lethal gene mutation, Assay Code: SRL+, Evaluation Type: Evaluation A (Pre-1980)) is “active; positive”.

`O=C(Cn1ccnc1[N+](=O)[O-])NCc1ccccc1`: the mutagenic call (Species/Cell Type: Mammalian polychromatic erythrocytes, Assay Type: Micronucleus test, chromosome aberrations, Assay Code: MNT+, Evaluation Type: Evaluation B (Post-1980)) was “active; positive”.

Take `CCC(=O)ONC(=O)c1ccc2ccccc2c1`: for the setting “Species/Cell Type: Nonhuman, Assay Type: Sister-chromatid exchange (SCE) in vitro, Assay Code: SC2+D, Dose Response: With dose response, Evaluation Type: Evaluation B (Post-1980)”, the mutagenic call is “active; positive”.

The values above are taken from PubChem BioAssay AID1259408 (Genetic Toxicology Data Bank (GENE-TOX), 2018).
